What was measured:
[1] = Hepatocyte binding by RED device; format: in vitro ADME
Description: The blood cell partitioning was calculated as follows. […] Plasma, liver microsomes and hepatocyte binding by RED device The stability of the compounds in plasma, liver microsomes and hepatocyte were studied to ensure the reliability of the binding data. Hepatocyte was deactivated by leaving them on a bench for 2 days and going through a freeze thaw cycle thereafter. […] Natural logarithm of peak area ratios (compound peak area normalized by IS peak area) were plotted against time and half-life calculated. The spiked plasma solutions, microsomes and hepatocytes (400 µL) after observing stability were placed into the sample chamber (indicated by the red ring) with 400 µL of PBS into the adjacent chamber. […] The experimental procedure outlined in the Thermo Scientific RED device systems brochure was adopted in the present study . The several positive controls were assayed (Table S4). […] For control experiments, NADPH, UDPGA and/or liver microsomes were omitted from these incubations. […] InVitroGROTM HT Medium was used for thawing suspension of cryopreserved hepatocytes. Incubations were conducted in a 96-well flat-bottom polystyrene plate in duplicate. […] 60, 90, 120 minutes by the addition of 4 folds ACN containing berberine chloride as internal standard 5

OATP1A2 = target: T1, OATP1A2 (Homo sapiens, UniProt P46721); experiment: OATP substrate identification, uptake in stably transfected HEK293 cells; details: 1 and 10 μM, 10 mins
T1 sequence (P46721 1-670): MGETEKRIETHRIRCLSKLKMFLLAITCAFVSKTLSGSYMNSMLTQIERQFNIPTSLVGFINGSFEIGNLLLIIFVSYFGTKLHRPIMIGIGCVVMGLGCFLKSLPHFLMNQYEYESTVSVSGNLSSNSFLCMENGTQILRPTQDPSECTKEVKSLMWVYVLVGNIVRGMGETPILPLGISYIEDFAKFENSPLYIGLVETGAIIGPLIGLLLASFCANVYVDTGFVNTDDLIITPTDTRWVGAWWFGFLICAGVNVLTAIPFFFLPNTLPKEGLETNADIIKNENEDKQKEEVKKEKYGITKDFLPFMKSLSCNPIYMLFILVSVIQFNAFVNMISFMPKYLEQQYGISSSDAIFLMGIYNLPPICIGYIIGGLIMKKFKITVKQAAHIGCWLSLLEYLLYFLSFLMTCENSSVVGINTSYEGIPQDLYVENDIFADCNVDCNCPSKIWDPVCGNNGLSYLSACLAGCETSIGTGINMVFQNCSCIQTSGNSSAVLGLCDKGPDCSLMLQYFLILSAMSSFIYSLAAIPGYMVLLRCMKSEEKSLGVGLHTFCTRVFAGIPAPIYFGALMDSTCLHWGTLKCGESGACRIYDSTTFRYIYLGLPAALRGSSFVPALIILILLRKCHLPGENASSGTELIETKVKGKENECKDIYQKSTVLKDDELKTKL
Description: Daily changes of medium were performed and on the second day after seeding using medium containing 10 mM sodium butyrate.
Stably transfected HEK cells and control vector-transfected HEK293 cells were first washed (3 × 1 mL) with prewarmed HBSS (pH 7.4) and then were incubated with 250 μL of HBSS containing compounds at concentrations of 1 and 10 μM. Cells were incubated for 10 mins at 37 °C for all experiments. After incubation, uptake was stopped by aspirating the incubation solution and washing each well 3 times with 200 μL of ice-old HBSS. The cells were lysed in 150 μL of 1 M NaOH for 30 mins, and then neutralized by adding equal volumes of 1 M HCl.
The following equations (3 and 4) were used to calculate the uptake rates (U, pmol/mg/min) and the OATP1B1, OATP1B3, OATP2B1 and OATP1A2 uptake ratio (UR):3 U=Clysate/P×T 4 UR=UOATP1B1/1B3/2B1/1A2/UHEK293−MOCK where C lysate is the compound concentration in cell lysates. P is the protein concentration in cell lysates. T is the incubation time. U OATP1B1/1B3/2B1/1A2 is the uptake rate obtained in HEK293 stably transfected OATP1B1, OATP1B3, OATP2B1 or OATP1A2 transportation. U HEK293-MOCK is the uptake rate obtained in control vector-transfected HEK293 transportation.

[2] = human deactivated hepatocytes 0.5 million cells/mL
[3] = mouse deactivated hepatocytes 0.5 million cells/mL

f u,hep, % [1, 2] | f u,hep, % [1, 3] [%] | uptake by OATP1A2 transfected HEK293 versus WT cells (OATP1A2) | Compound
5.50 ± 0.730^$$ % | 16.0 ± 5.50 | no significant differences | COCCOCCn1c2ccccc2c2cc(/C=C/c3cc[n+](CCO)c4ccccc34)ccc21 [SLOH, (E)-1-(2-hydroxyethyl)-4-(2-(9-(2-(2-metho-xyethoxy)-ethyl)-9H-carbazol-3-yl)vinyl) quinolin-1-ium chloride]
11.0 ± 0.870^$$ % | 15.0 ± 4.60 | no significant differences | COCCOCCn1c2ccccc2c2cc(/C=C/c3cc[n+](C)c4ccccc34)ccc21.[I-] [SLM, (E)-4-(2-(9-(2-(2-methoxyethoxy)ethyl)-9H-carbazol-3-yl)-vinyl)-1-methyl-quinolin-1-iumiodide]

From PMC5703966, “Systemic clearance and brain distribution of carbazole-based cyanine compounds as Alzheimer’s disease drug candidates” (Scientific Reports, 2017)
